Laboratory results taken from patent US11072585B2 (PharmAkea, Inc., priority 2015, dated 2021).

Columns and labels:
[1] = system: bleomycin-induced lung fibrosis in C57Bl/6 male mice; assay: Mouse oropharyngeal bleomycin model of lung fibrosis; assay type: in vivo; settings: for efficacy in bleomycin lung fibrosis model, prophylactic dosing: dosed prophylactically at 60 mg/kg p.o.; for efficacy in bleomycin lung fibrosis model, therapeutic dosing: dosed therapeutically at 60 mg/kg p.o.
Method: Example B-3: Mouse Oropharyngeal Bleomycin Model of Lung Fibrosis
Lung fibrosis is induced in C57Bl/6 male mice by administering bleomycin (0.1-4 U/kg) via oropharyngeal instillation. Mice are either pretreated with vehicle or test compound (1 day to 1 hour) orally, intraperitoneally, intravenously or subcutaneously before bleomycin installation (prophylactic dosing) or 7-14 days post bleomycin instillation (therapeutic dosing). The route and frequency of dosing are based on previously determined pharmacokinetic properties for the LOXL2 inhibitor in mouse. After bleomycin instillation animals are monitored daily for weight loss and clinical signs for 14-28 days prior to sacrifice. Animals are euthanized at study termination and weighed and blood (for isolation of plasma) and bronchoalveolar lavage are collected and frozen for subsequent analyses. Lungs are removed, weighed, then either inflated and fixed by instillation of 10% formalin and prepared for histological examination or homogenized in 1 ml PBS for collagen determination using a hydroxyproline assay. For histological examination, lung slices are stained with Masson's trichrome or Picro-Sirius red to measure cross-linked collagen as an indicator of fibrosis and an Ashcroft score of lung fibrotic and inflammatory damage determined. In addition, immunohistochemistry of fibrotic proteins such as a-smooth muscle actin can be recorded. For lung hydroxyproline content, 0.5 ml of the lung homogenate is removed and added to 0.5 ml 12 N HCl and the samples heated at 120° C. overnight. After the acid hydrolysis, 25-100 μl of the supernatant is dried down, resuspended in 25 μl water and the hydroxyproline content determined by the addition of 0.5 ml Chloramine T solution (140 mg Chloramine T in 6.5 ml ddH2O+1 ml n-propanol+2.5 ml 1M sodium acetate) and incubation at room temperature for 20 min. After the incubation, 0.5 ml Erlich's solution (1.48 g of 4-(dimethylamino(benzaldehyde) in 7 ml n-propanol+2.88 ml 60% perchloric acid and 0.12 ml ddH2O) is added and incubated at 65° C. for 15 min before reading the absorbance at 550 nm. The concentration of hydroxyproline in each […] is determined from a hydroxyproline (purchased from Sigma) standard curve.

human LOXL2 = human LOXL2 (Homo sapiens (Human), UniProt Q9Y4K0); assay: Human LOXL2 amine oxidase activity assay (Amplex Red); assay type: biochemical; settings: concentrated conditioned media from CHO cells stably expressing human LOXL2; 2 h at 37° C. with compound; DAP substrate
In short: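 Concentrated conditioned medium from CHO cells stably expressing human LOXL2 was preincubated with compound for 2 h at 37 °C in 50 mM borate, pH 8. 1,5-diaminopentane substrate and Amplex Red/HRP were then added. Fluorescence (544/590) was read kinetically every 2 min for 1 h, with activity taken from the linear slope.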

[2] = system: kidney fibrosis in Col4A3 deficient mice; assay: Mouse Alport model of kidney fibrosis; assay type: in vivo; settings: dosed prophylactically at 30 mg/kg p.o.
Method: Example B-7: Mouse Alport Model of Kidney Fibrosis
Mice with mutations in one of the genes of glomerular basement membrane collagen, Collagen IV-a3/a4/a5, have defects in glomerular function with development of kidney fibrosis These mice develop renal dysfunction and die prematurely of renal failure with specific timing dependent on the strain background upon which the mutation is present. LOXL2 inhibitors are administered orally to Col4A3 deficient mice on a SV129 background either prophylactically (ca. weeks 2-3 of age) or therapeutically (ca. weeks 4-6 wks of age). Mice are either sacrificed at a predefined time (7-9 wks of age) or continually dosed until they lose >15% of their body weight which preceeds death by 1-3 days. If specifically terminated, mice are perfused transcardially with PBS, and one kidney clamped at the renal artery and the other perfused with Dynabeads for magnetic isolation of glomeruli. […] RNA from glomeruli and renal cortex is analyzed by real time RT-PCR for genes of interest including MMP-10, MMP-12, IL6, MCP-1, TGF-b1, CTGF, MMP-2, and MMP-9. […] Collagen 1 staining is blindly analyzed for fibrosis scoring, and fibronectin staining is blindly analyzed for glomerulosclerosis scoring. For all studies albuminuria is assessed weekly and BUN at the time of tissue harvest.

Sequence of human LOXL2 (Q9Y4K0 26-774): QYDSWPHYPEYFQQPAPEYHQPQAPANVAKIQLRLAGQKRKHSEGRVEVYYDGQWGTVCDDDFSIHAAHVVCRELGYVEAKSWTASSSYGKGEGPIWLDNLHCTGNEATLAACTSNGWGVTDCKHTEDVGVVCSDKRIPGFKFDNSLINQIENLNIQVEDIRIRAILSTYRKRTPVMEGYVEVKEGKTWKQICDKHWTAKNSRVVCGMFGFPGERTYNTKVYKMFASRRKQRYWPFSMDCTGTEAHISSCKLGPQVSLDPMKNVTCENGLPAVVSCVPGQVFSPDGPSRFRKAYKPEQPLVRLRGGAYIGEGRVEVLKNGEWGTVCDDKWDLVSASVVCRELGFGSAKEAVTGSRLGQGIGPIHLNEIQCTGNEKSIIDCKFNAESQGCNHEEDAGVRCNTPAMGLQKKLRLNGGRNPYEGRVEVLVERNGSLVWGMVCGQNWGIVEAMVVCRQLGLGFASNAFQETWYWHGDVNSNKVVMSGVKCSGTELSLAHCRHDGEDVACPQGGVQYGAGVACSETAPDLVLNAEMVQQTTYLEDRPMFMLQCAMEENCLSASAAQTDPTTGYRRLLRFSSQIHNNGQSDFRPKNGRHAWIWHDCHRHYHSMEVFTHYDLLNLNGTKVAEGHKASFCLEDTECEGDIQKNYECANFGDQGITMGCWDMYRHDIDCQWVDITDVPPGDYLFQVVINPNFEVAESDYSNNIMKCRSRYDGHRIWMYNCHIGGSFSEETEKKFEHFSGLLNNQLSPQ

Row | SMILES | efficacy in bleomycin lung fibrosis model, prophylactic dosing [1] | efficacy in bleomycin lung fibrosis model, therapeutic dosing [1] | IC50 (human LOXL2) | efficacy in Alport kidney fibrosis model, prophylactic dosing [2]
1 | Cl.NCc1cc(Oc2cccc(C(=O)N3C[C@@H](O)[C@H](F)C3)c2)nc(C(F)(F)F)c1 (stereo in doubt) [Compound 1-21, (R,R)-trans-(3-((4-(Aminomethyl)-6-(trifluoromethyl)pyridin-2-yl)oxy)phenyl)(3-fluoro-4-hydroxypyrrolidin-1-yl)methanone hydrochloride] | efficacious | efficacious | < 0.3 µM | efficacious
2 | Cl.NCc1cc(Oc2cccc(C(=O)N3C[C@@H](O)[C@H](F)C3)c2)nc(C(F)(F)F)c1 (stereo in doubt) [Compound 1-19, Racemic-trans-(3-((4-(aminomethyl)-6-(trifluoromethyl)pyridin-2-yl)oxy)phenyl)(3-fluoro-4-hydroxypyrrolidin-1-yl)methanone hydrochloride] | efficacious | efficacious | < 0.3 µM | –
3 | Cl.NCc1cc(Oc2cccc(C(=O)Nc3ccccc3)c2)nc(C(F)(F)F)c1 [Compound 1-7, 3-((4-(Aminomethyl)-6-(trifluoromethyl)pyridin-2-yl)oxy)-N-phenylbenzamide hydrochloride] | efficacious | – | < 0.3 µM | –
4 | Cl.NCc1cc(Oc2cccc(C(=O)NCCn3cnnn3)c2)nc(C(F)(F)F)c1 [Compound 1-15, N-(2-(1H-Tetrazol-1-yl)ethyl)-3-((4-(aminomethyl)-6-(trifluoromethyl)pyridin-2-yl)oxy)benzamide hydrochloride] | efficacious | – | < 0.3 µM | –
